Assay results: ChEMBL document CHEMBL1201862, “PubChem BioAssay data set” (2004)
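Cells were grown in 96-well plates and exposed to each compound for 48 hours at five concentrations; endpoints were interpolated linearly between bracketing concentrations, or set to the highest concentration if not reached. GI50 marks 50% less growth.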 Calls of active or inactive are those of the source. Cut-off read from the data, not from the text of the source: active = GI50 up to about 1.1 µM and inactive = higher.

Experiments:
Test in all cases: DTP human tumour cell line panel, 48 h
UACC-62 = test system: UACC-62
T47D = test system: T47D
PC-3 = test system: PC-3
RPMI-8226 = test system: RPMI-8226
HOP-92 = test system: HOP-92
MDA-MB-435 = test system: MDA-MB-435
M14 = test system: M14
OVCAR-5 = test system: OVCAR-5
LOX IMVI = test system: LOX IMVI
SK-MEL-5 = test system: SK-MEL-5
OVCAR-3 = test system: OVCAR-3
SK-MEL-2 = test system: SK-MEL-2
SN12C = test system: SN12C
SF-268 = test system: SF-268
HCT-116 = test system: HCT-116
UACC-257 = test system: UACC-257
TK-10 = test system: TK-10
Malme-3M = test system: Malme-3M
RXF 393 = test system: RXF 393
ACHN = test system: ACHN

Measured: GI50

O=C(O)CC(Cc1ccc2c(c1)OCO2)C(=O)O (stereo not given)
inactive: UACC-62 > 100 µM | T47D > 100 µM | PC-3 > 100 µM | RPMI-8226 > 100 µM | HOP-92 > 100 µM | MDA-MB-435 > 100 µM | M14 > 100 µM | OVCAR-5 > 100 µM | LOX IMVI > 100 µM | SK-MEL-5 > 100 µM | OVCAR-3 > 100 µM | SK-MEL-2 > 100 µM | SN12C > 100 µM | SF-268 > 100 µM | HCT-116 > 100 µM | UACC-257 > 100 µM | TK-10 > 100 µM | Malme-3M > 100 µM | RXF 393 > 100 µM | ACHN > 100 µM

O=C(/C=C/c1ccc2c(c1)OCO2)NCCc1ccco1
inactive: UACC-62 44.2 µM | T47D 26.5 µM | PC-3 50.8 µM | RPMI-8226 21.8 µM | HOP-92 92.7 µM | MDA-MB-435 64.7 µM | M14 45.5 µM | OVCAR-5 > 100 µM | LOX IMVI 78.5 µM | SK-MEL-5 23.7 µM | OVCAR-3 34.4 µM | SK-MEL-2 > 100 µM | SN12C > 100 µM | SF-268 > 100 µM | HCT-116 68.9 µM | UACC-257 49.8 µM | TK-10 65.8 µM | Malme-3M 41.6 µM | RXF 393 > 100 µM | ACHN 53 µM

S=c1[nH]nc(COc2ccc3c(c2)CCCC3)n1/N=C/c1ccc(Cl)cc1
inactive: UACC-62 19.1 µM | T47D 12.1 µM | PC-3 14.9 µM | RPMI-8226 17.3 µM | HOP-92 14.7 µM | MDA-MB-435 19.3 µM | M14 18 µM | OVCAR-5 17.9 µM | LOX IMVI 20.2 µM | SK-MEL-5 15.7 µM | OVCAR-3 16 µM | SK-MEL-2 18.2 µM | SN12C 22.8 µM | SF-268 17.9 µM | HCT-116 14.5 µM | UACC-257 22.6 µM | TK-10 20.1 µM | Malme-3M 17 µM | RXF 393 14.4 µM | ACHN 20.1 µM

CCOC(=O)/C=C(\N=P(c1ccccc1)(c1ccccc1)c1ccccc1)C(F)(F)C(F)(F)C(F)(F)C(F)(F)C(F)(F)F
inactive: UACC-62 > 100 µM | T47D > 100 µM | PC-3 > 100 µM | RPMI-8226 > 100 µM | HOP-92 > 100 µM | MDA-MB-435 > 100 µM | M14 > 100 µM | OVCAR-5 > 100 µM | LOX IMVI > 100 µM | SK-MEL-5 > 100 µM | OVCAR-3 > 100 µM | SK-MEL-2 > 100 µM | SN12C > 100 µM | SF-268 > 100 µM | HCT-116 > 100 µM | UACC-257 > 100 µM | TK-10 > 100 µM | Malme-3M > 100 µM | RXF 393 > 100 µM | ACHN 47.8 µM

COc1cc(/C=C/C(=N\NC(N)=S)c2sc(NNC(C)=O)nc2C)ccc1O
inactive: UACC-62 > 100 µM | T47D > 100 µM | PC-3 > 100 µM | RPMI-8226 > 100 µM | HOP-92 > 100 µM | MDA-MB-435 > 100 µM | M14 > 100 µM | OVCAR-5 > 100 µM | LOX IMVI > 100 µM | SK-MEL-5 > 100 µM | OVCAR-3 > 100 µM | SK-MEL-2 > 100 µM | SN12C > 100 µM | SF-268 > 100 µM | HCT-116 > 100 µM | UACC-257 > 100 µM | TK-10 > 100 µM | Malme-3M > 100 µM | RXF 393 > 100 µM | ACHN > 100 µM
